From US20180179524A1, “COMPOSITIONS AND METHODS FOR INHIBITING CELL PROLIFERATION” (President and Fellows of Harvard College, priority 2015, published 2018)

Experiments:
[1] = tested on: Tsc2−/− MEFs; test: Proliferation of Tsc2-/- MEFs relative to Tsc2+/+ MEFs treated with compounds (FIG. 9); assay type: cell-based; settings: for cytotoxic effect on Tsc2−/− cells / selective effects on cell viability in Tsc2−/− cells compared with rapamycin: JWD07 5 μM, AT7915 2 μM; for cytotoxic effect on Tsc2−/− cells: Mizoribine 2.5 μM; for selective effects on cell viability in Tsc2−/− cells compared with rapamycin: Mizoribine 2.5 μM vs Rapamycin 20 nM
Protocol: FIG. 9 is a series of panels, panels A-E showing TSC2 loss confers sensitivity to CCNT1, RNGTT, or CDK11 loss of function. Panel A is a schematic of the methods disclosed herein. […] Panel B represents data corresponding to the CDK9/CDK11 inhibitor JWD07 (5 μM). Panel C represents data corresponding to the CDK2/CDK9/CDK11 inhibitor AT7915 (2 μM). Panel D represents data corresponding to the RNGTT/IMPDH inhibitor Mizoribine (2.5 μM). Panel E represents data corresponding to the mTORC1 inhibitor Rapamycin (20 nM).

[2] = tested on: luciferase-based reporter constructs in S2R+ cells; test: Luciferase-based mutation reporter assay (sgRNA mutation efficiency); assay type: cell-based, Drosophila; settings: sgRNAs with no mismatches targeting luciferase-based reporter in S2R+ cells; mutation rate = 1/Firefly luciferase normalized to Renilla
Protocol: The luciferase reporter vector was constructed by PCR amplifying the metallothionein promoter from pMK33 and luciferase gene from pGL3 (Table 1) and combining these with annealed oligos containing a gRNA target site (Table 1 and Table 2) and a custom made cloning vector using Golden Gate assembly.
Luciferase assays were performed by transfecting S2R+ cells with the relevant pl018 plasmid, luciferase reporter and pRL-TK (Promega) (to allow normalization of transfection efficiencies between samples) in 96 well plates using Effectene Transfection Reagent (Qiagen) according to the manufacturer's recommendations. Twenty-four hours after transfection, CuSO4 was added to the cell media at a final concentration of 140 μM and cells were incubated for a further 16 hours.
Firefly and Renilla luciferase readings were taken using the Dual-Glo Luciferase Assay System (Promega) according to manufacturer's instructions and a SpectraMax Paradigm Multi-Mode Microplate Detection Platform (Molecular Devices).
Because the rate of mutations varies widely between different sgRNAs (25-27), whether efficiency could be predicted based on the sgRNA sequence was tested. 75 additional sgRNAs were generated, each targeting luciferase-based reporter constructs with no mismatches and tested mutation efficiency for each. Using this panel of sgRNAs and associated efficiencies, the presence or absence of a correlation between GC content and mutation rate was examined. […] Next, whether a more general sequence-based approach was tested for its ability to improve efficiency prediction. The nucleotide content of all 75 sgRNAs was examined, considering each position separately and generated a probability matrix linking nucleotide content with mutation rate (FIG. 1, panel B). This was then used to generate predicted efficiency scores based on sgRNA sequence. […] Note that sgRNAs targeting close to the 3′ end of genes or with apparent viability effects were not included in this analysis. Finally, predicted scores were generated for all sgRNA target sites in the Drosophila genome and annotated.

O=C(NC1CCNCC1)c1n[nH]cc1NC(=O)c1c(Cl)cccc1Cl [AT7915]
proliferation of Tsc2−/− MEFs relative to Tsc2+/+ MEFs ([1]; 2 μM, FIG. 9 panel C): selectively reduce proliferation | cytotoxic effect on Tsc2−/− cells [1]: exert a cytotoxic effect | selective effects on cell viability in Tsc2−/− cells compared with rapamycin [1]: superior to rapamycin

NC(=O)c1ncn([C@@H]2O[C@H](CO)[C@@H](O)[C@H]2O)c1O [Mizoribine]
proliferation of Tsc2−/− MEFs relative to Tsc2+/+ MEFs ([1]; 2.5 μM, FIG. 9 panel D): selectively reduce proliferation | cytotoxic effect on Tsc2−/− cells [1]: exert a cytotoxic effect | selective effects on cell viability in Tsc2−/− cells compared with rapamycin [1]: superior to rapamycin

TCGCGGGCTTGCATGACGCG: sgRNA targeting a luciferase-based reporter construct, no mismatches (chemistry not given here)
Mean efficiency [2]: 0.3295

TCGTACCGCACCGGTATTTT: sgRNA targeting a luciferase-based reporter construct, no mismatches (chemistry not given here)
Mean efficiency [2]: 0.1565

TGACGCCTCAGGGTGCCGTC: sgRNA targeting a luciferase-based reporter construct, no mismatches (chemistry not given here)
Mean efficiency [2]: 0.6594

TGCGCTTACCGACGATTGGG: sgRNA targeting a luciferase-based reporter construct, no mismatches (chemistry not given here)
Mean efficiency [2]: 0.1109

TGCGGTCGCGTGAGAAATAT: sgRNA targeting a luciferase-based reporter construct, no mismatches (chemistry not given here)
Mean efficiency [2]: 0.02876

TGTTCCCTACACGGCGCCAG: sgRNA targeting a luciferase-based reporter construct, no mismatches (chemistry not given here)
Mean efficiency [2]: 0.2531

TTCTCCGCTGTTATCCTATA: sgRNA targeting a luciferase-based reporter construct, no mismatches (chemistry not given here)
Mean efficiency [2]: 0.08182

TTCTGAGTACATGTGATACC: sgRNA targeting a luciferase-based reporter construct, no mismatches (chemistry not given here)
Mean efficiency [2]: 0.2974

TTGACATCAGCGCGCGAGGC: sgRNA targeting a luciferase-based reporter construct, no mismatches (chemistry not given here)
Mean efficiency [2]: 0.3893

TTGGCCGCGACCTGTTTATC: sgRNA targeting a luciferase-based reporter construct, no mismatches (chemistry not given here)
Mean efficiency [2]: 0.9282

TTGTTCGAAGATCTGCGCGA: sgRNA targeting a luciferase-based reporter construct, no mismatches (chemistry not given here)
Mean efficiency [2]: 0.2212

TTGTTTGCTGGTACAAACGC: sgRNA targeting a luciferase-based reporter construct, no mismatches (chemistry not given here)
Mean efficiency [2]: 0.2993

TTTTTTTGGGATCATATACG: sgRNA targeting a luciferase-based reporter construct, no mismatches (chemistry not given here)
Mean efficiency [2]: 0.1278
